Assay results reported in US7045495B2 (Sloan-Kettering Institute for Cancer Research, priority 1996, dated 2006).
“And” between values parts separate entries of the source, which are not always exact repeats. Equal values may be shown once.

Legend:
Type in all cases: cell-based, human
SK-GT-5 cells = test: apoptosis by quantitative fluorescent microscopy (QFM), Hoechst-33258 staining; conditions: for percentage of cells undergoing apoptosis (QFM): FIG. 4: safingol 50 μM and/or PMA 1 ng/ml for 1 hour, then MMC 5 μg/ml or no drug 24 hours, MMC alone 24 hours
Method: (§1) Apoptosis was measured by two different methods: (i) Quantitative fluorescent microscopy (QFM) of nuclear changes induced by apoptosis, as determined by bisbenzimide trihydrochloride (Hoescht-33258) staining of nuclear chromatin (15), and (ii) a terminal deoxynucleotidyl transferase (TdT) assay that labels the 3′-OH ends of DNA fragments produced in apoptotic cells (16). […] MMC was diluted in water. A stock safingol solution was constituted in DMSO and was subsequently diluted at least 1:100 in media for all experiments. […] For QFM determinations, the cells were fixed in 3% paraformaldehyde and incubated at room temperature for 10 minutes. The fixative was removed and the cells were washed with 1×PBS, resuspended in 20 μl 1×PBS containing only 8 μg/ml of bisbenzimide trihydrochloride (Hoechst #33258), and incubated at room temperature for 15 minutes. Aliquots of the cells (10 μl) were placed on glass slides coated with 3-amino-propyl-triethoxysilane, and duplicate samples of 500 cells each were counted and scored for the incidence of apoptotic chromatin condensation using an Olympus BH-2 fluorescence microscope equipped with a BH2-DM2U2UV Dich. Mirror Cube filter (Olympus, Lake Success, N.Y.). For the TdT assays, the ApopTag Kit (Oncor, Gaithersburg, Md.) was used. This method employs a fluoresceinated antidigoxigenin antibody directed against nucleotides of digoxigenin-11-dUTP (d-dUTP) which are catalytically added to the 3-ends fragmented DNA by TdT. Briefly, 1–2×10^6 cells were washed and fixed with 1% paraformaldehyde. The fixed cells were incubated in a reaction mixture containing TdT and d-dUTP for 30 minutes at 37° C. Stop/wash buffer was added, and the cells were resuspended in 100 μl of fluorescinated anti-digoxigenin antibody for 30 minutes at room temperature. The cells were then washed with 0.1% Triton X-100 and counterstained with propidium iodide (PI) solution. Green (d-dUTP labeled DNA strand breaks) and red (PI staining for total DNA content) fluorescence of individual cells were measured on a FACScan flow cytometer (Becton Dickinson, San Jose, Calif.). The resulting bivariate plots enabled the detection of apoptotic events within the cell cycle. The R1 cursor was set using the control specimen to define normal levels of green fluorescence (i.e., basal levels of apoptosis). Cells with fluorescence above the R, cursor were considered apoptotic. The data from 10,000 cells were collected and analyzed using CellFit and LYSYS software (Becton Dickinson).
For the QFM duplicate samples of 500 cells each were counted and scored for the incidence of apoptotic chromatin condensation using an Olympus BH-2 fluorescence microscope.

MKN-74 cells [1] = test: apoptosis by QFM, Hoechst-33258 staining
Method: as §1
Apoptosis was again measured by QFM staining.
(§2) Induction of apoptosis was estimated by counting the frequency of condensed nuclear chromatin with Hoechst-33258 stain in duplicate samples of 400 cells.
For these studies apoptosis was measured by quantitative fluorescent microscopy (QFM) determination with bisbenzimide trihydrochloride stain (Hoescht-33258) for condensed nuclear chromatin characteristic of apoptotic cells.
For QFM determinations 500 cells were counted and scored for the incidence of apoptotic chromatin changes under an Olympus BH-2 fluorescence microscope in duplicate samples, ±SD, using a BH2-DM2U2UV Dich. Mirror Cube filter.
To study this further applicants elected to examine five bis-indolylmaleimides with various potencies against PKC. […] The induction of apoptosis was estimated by counting the frequency of condensed nuclear chromatin with Hoechst-33258 stain in duplicate samples of 400 cells.

[2] = tested on: MDA-MB-468 breast cancer cells; test: apoptosis by QFM, Hoechst-33258 staining; conditions: for percentage of cells undergoing apoptosis (QFM): FIG. 9, safingol 50 μM
Method: PRELIMINARY STUDIES. […] Apoptosis was measured by quantitative fluorescent microscopy (QFM) of nuclear changes induced by apoptosis, as determined by bisbenzimide trihydrochloride (Hoescht-33258) staining of condensed nuclear chromatin (24). For the QFM duplicate samples of 500 cells each were counted and scored for the incidence of apoptotic chromatin condensation using an Olympus BH-2 fluorescence microscope.
Applicants also tested the PKC inhibitor UCN-01 (27) which is currently in phase I clinical trial at the NCI. In contrast to safingol, which inhibits PKC by binding to its regulatory domain, UCN-01 inhibits PKC at its catalytic domain. Therefore, assessment of the effect of UCN-01 on inducing apoptosis in combination with MMC on MDA-MB-468 was also performed. The QFM method to quantitate apoptosis was again used. The conditions tested were identical to those described above for safingol except UCN-01 (1 μM) was substituted for safingol in all the conditions.
as §2

MKN-74 cells [3] = test: TdT assay with flow cytometry; conditions: 24 hours; safingol 50 μM, MMC 5 μg/ml
Method: Apoptosis was measured by two different methods: (i) Quantitative fluorescent microscopy (QFM) of nuclear changes induced by apoptosis, as determined by bisbenzimide trihydrochloride (Hoescht-33258) staining of nuclear chromatin (15), and (ii) a terminal deoxynucleotidyl transferase (TdT) assay that labels the 3′-OH ends of DNA fragments produced in apoptotic cells (16). […] MMC was diluted in water. A stock safingol solution was constituted in DMSO and was subsequently diluted at least 1:100 in media for all experiments. […] For QFM determinations, the cells were fixed in 3% paraformaldehyde and incubated at room temperature for 10 minutes. […] Aliquots of the cells (10 μl) were placed on glass slides coated with 3-amino-propyl-triethoxysilane, and duplicate samples of 500 cells each were counted and scored for the incidence of apoptotic chromatin condensation using an Olympus BH-2 fluorescence microscope equipped with a BH2-DM2U2UV Dich. […] Green (d-dUTP labeled DNA strand breaks) and red (PI staining for total DNA content) fluorescence of individual cells were measured on a FACScan flow cytometer (Becton Dickinson, San Jose, Calif.). […] The R1 cursor was set using the control specimen to define normal levels of green fluorescence (i.e., basal levels of apoptosis). Cells with fluorescence above the R, cursor were considered apoptotic. […]

cdk2 = cdk2 activity by histone type-I phosphorylation after immunoprecipitation from treated cells; conditions: MKN-74 cells; 24 hours; MMC 5.0 μg/ml, safingol 50 μM; FIG. 8
Method: (ii) Safingol increases cdk2 activity only when co-administered with chemotherapy: For determination of cdk2 activity MKN-74 cells were treated according to the conditions shown to enhance chemotherapy induced apoptosis: (i) no drug (control) for 24 hours, (ii) Mitomycin-C alone (5.0 μg/ml) for 24 hours, (iii) Safingol alone (50 μM) for 24 hours, (iv) the combination of safingol (50 μM) and Mitomycin-C (MMC, 5.0 μg/ml) for 24 hours. Cdk2 activity was determined by histone type-I phosphorylation, as described (38). For these studies cdk2 was first immunoprecipitated from the cell lysates following treatment under these four conditions. The kinase reaction was allowed to proceed at 30° for 30 minutes in the presence of histone type-I and [^32P]ATP. For each sample a control sample was run under the same conditions, but IgG was used in place of […]. This allowed for detection on non-specific kinase activity which was then subtracted out from the cdk2 activity to determine the absolute radioactive incorporation attributable to cdk2. The samples were transferred to a 10% SDS PAGE gel for analysis. The autoradiographs were analyzed on a phosphoimager for determinations of relative cdk2 activity.

[4] = tested on: gastric cancer cells (SK-GT cells); test: cell proliferation studies with [3H]-thymidine

CCCCCCCCCCCCCCC[C@H](O)[C@@H](N)CO [safingol, L-threo-dihydrosphingosine]
percentage of cells undergoing apoptosis (QFM) (SK-GT-5 cells): essentially no effect on inducing apoptosis | potentiation of MMC-induced apoptotic response by addition of safingol (SK-GT-5 cells; SK-GT-5): approximately 2 fold | potentiation of MMC-induced apoptotic response by addition of safingol (MKN-74 cells [1]; MKN-74): approximately 2 fold | percentage of cells undergoing apoptosis (QFM) ([2]; 24 hours, MMC 5.0 μg/ml): 11%±1 | apoptotic cells: green fluorescence above R1 region (TdT assay) (MKN-74 cells [3]): essentially no apoptosis | cdk2 activity (cdk2): decreased cdk2 | highest non-toxic dose (cell proliferation studies) ([4]; SK-GT / SK-GT-5 / gastric cancer cells, 24 hours): 50 µM

CO[C@@]12[C@H](COC(N)=O)C3=C(C(=O)C(C)=C(N)C3=O)N1C[C@@H]1N[C@@H]12 [MMC, Mitomycin-C]
percentage of cells undergoing apoptosis (QFM) (SK-GT-5 cells): 36%±4 | Percent Apoptosis (MKN-74 cells [1]; 24 h continuous (single drug) or concomitant, flavopiridol 300 nM, MMC 1 μg/ml, paclitaxel 50 μM, carboplatin): 7%±1% | % APOPTOSIS (MKN-74 cells [1]; 24 hours, FLAVO 300 nM, Taxol 50 μM, MMC 1 μg/ml, single drugs or in combination): 7% | percent induction of apoptosis, Concomitant (MKN-74 cells [1]; 24 hours, FLAVO 300 nM, Taxol 50 μM, MMC 1 μg/ml, single drugs or together): 7% ± 1% | induction of apoptosis (condensed chromatin, 400 cells) (MKN-74 cells [1]; 24 hours, PKC inhibitor 1 to 4 μM, MMC 5 μg/ml): 10% ±2% | percentage of cells undergoing apoptosis (QFM) (MKN-74 cells [1]; 24 hours, RO 32-0432 1 μM, MMC): 16%±2% | induction of apoptosis (QFM) (MKN-74 cells [1]; 24 hours, safingol 50 μM, UCN-01 10 μM, MMC 5 μg/ml): 26%±5% | induction of apoptosis (QFM) (MKN-74 cells [1]; FIG. 7, 24 hours, flavopiridol 300 nM, MMC 50 μM (as printed b127)): 7%±1% | percentage of cells undergoing apoptosis (QFM) (MKN-74 cells [1]; MKN-74 (wild-type p53), 24 hours, safingol 50 μM, MMC 5 μg/ml): 40% | induction of apoptosis (condensed chromatin, 400 cells) (MKN-74 cells [1]; MKN-74, 24 hours, Flavo 300 nM, MMC 5 μg/ml): 7% ± 1 | percent induction of apoptosis, 6hrs (MKN-74 cells [1]; Ro 2 μM, MMC 1 μg/ml): 1.0% | percent induction of apoptosis, 12hrs (MKN-74 cells [1]; Ro 2 μM, MMC 1 μg/ml): 0.8% | percent induction of apoptosis, 24hrs (MKN-74 cells [1]; Ro 2 μM, MMC 1 μg/ml): 5.8% | percent induction of apoptosis, 48hrs (MKN-74 cells [1]; Ro 2 μM, MMC 1 μg/ml): 27% | percent induction of apoptosis, 72hrs (MKN-74 cells [1]; Ro 2 μM, MMC 1 μg/ml): 30% | percentage of cells undergoing apoptosis (QFM) ([2]; 24 hours, MMC 5.0 μg/ml): 6%±1 | percentage of cells undergoing apoptosis (QFM) ([2]; 24 hours, MMC […]): 4%±2 | induction of apoptosis (condensed chromatin, 400 cells) ([2]; MDA-MB-468, 24 hours, UCN-01 7.5 to 10 μM, MMC 5 μg/ml): 6% ± 1 | percentage of cells undergoing apoptosis ([2]; MDA-MB-468, flavopiridol, MMC): 10%±2% | apoptotic cells: green fluorescence above R1 region (TdT assay) (MKN-74 cells [3]): increased green fluorescence | cdk2 activity (cdk2): decreased cdk2 | inhibition of cell proliferation ([4]; MMC 5 μg/ml): < 20% and 20%
